Data: publication PMC11445358 (Applied Microbiology and Biotechnology, 2024)
Residues, ends and D or L forms follow the SMILES beside them. *: point of attachment. Cbz = O=C(OCc1ccccc1)*

Biological target: T1, microbial transglutaminase (MTG) (Streptomyces mobaraensis, UniProt P81453)
T1 sequence (P81453 77-407): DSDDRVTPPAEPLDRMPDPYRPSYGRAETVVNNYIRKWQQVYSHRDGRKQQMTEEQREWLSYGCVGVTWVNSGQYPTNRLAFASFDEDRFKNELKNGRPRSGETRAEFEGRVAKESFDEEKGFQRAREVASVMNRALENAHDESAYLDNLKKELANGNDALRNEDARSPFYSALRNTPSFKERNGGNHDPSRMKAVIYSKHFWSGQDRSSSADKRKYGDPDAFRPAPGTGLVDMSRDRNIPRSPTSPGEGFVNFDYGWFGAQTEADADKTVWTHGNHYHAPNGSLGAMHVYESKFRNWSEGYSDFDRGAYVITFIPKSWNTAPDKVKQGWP
Experiment: colorimetric hydroxamate assay, absorbance at […] nm
Assay type: biochemical
Conditions: 37 °C, 10 min; hydroxamate formation

SMILES: NC(=O)CC[C@H](NC(=O)OCc1ccccc1)C(=O)NCC(=O)O [Z-QG, N-carbobenzoxy-L-glutaminylglycine] (Cbz-Gln-Gly-OH)
- specific activity: specific MTG activity was measured with a colorimetric hydroxamate procedure using N-carbobenzoxy-L-glutaminylglycine (Z-QG)
